Data as given in ChEMBL document CHEMBL4184174 (Bioorg Med Chem Lett, 2018).

Key:
[1] = biological target: T1, Alkaline phosphatase, tissue-nonspecific isozyme (Homo sapiens, UniProt P05186); test: Inhibition of TNAP (unknown origin) using PPi as substrate
T1 sequence (P05186 whole entry): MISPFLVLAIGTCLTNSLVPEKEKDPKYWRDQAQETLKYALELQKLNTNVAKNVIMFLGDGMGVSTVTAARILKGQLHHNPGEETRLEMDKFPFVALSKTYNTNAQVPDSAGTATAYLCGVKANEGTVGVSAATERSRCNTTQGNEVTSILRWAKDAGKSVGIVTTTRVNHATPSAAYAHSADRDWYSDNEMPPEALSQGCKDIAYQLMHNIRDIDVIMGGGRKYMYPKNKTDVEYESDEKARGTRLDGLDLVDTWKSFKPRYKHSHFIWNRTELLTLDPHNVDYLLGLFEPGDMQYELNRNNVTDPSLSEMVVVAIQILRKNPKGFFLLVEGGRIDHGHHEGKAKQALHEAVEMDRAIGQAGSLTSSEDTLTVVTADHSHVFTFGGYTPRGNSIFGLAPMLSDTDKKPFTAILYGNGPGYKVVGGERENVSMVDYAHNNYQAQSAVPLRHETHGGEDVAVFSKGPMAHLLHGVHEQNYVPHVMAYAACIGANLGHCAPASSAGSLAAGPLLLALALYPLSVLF

[2] = biological target: T1, Alkaline phosphatase, tissue-nonspecific isozyme; test: Inhibition of TNAP (unknown origin) in whole blood using pNPP as substrate
[3] = Volume of distribution in mouse at 2 mg/kg, iv; format: ADME, organism-based; conditions: in vivo
[4] = Cmax in mouse at 10 mg/kg, po; format: ADME, organism-based; set-up: dose 10 mg/kg, route oral; conditions: in vivo
Mus musculus [5] = test: (§1) AUC in mouse at 10 mg/kg, po; format: ADME, organism-based; conditions: in vivo
[6] = Half life in mouse at 10 mg/kg, po; format: ADME, organism-based; conditions: in vivo
Mus musculus [7] = test: Oral bioavailability in mouse at 10 mg/kg; format: ADME, organism-based; conditions: in vivo
Mus musculus [8] = test: In vivo inhibition of TNAP in mouse plasma at 10 mg/kg, po administered as single dose after 8 hrs relative to control; format: functional
Mus musculus [9] = test: In vivo inhibition of TNAP in mouse plasma at 10 mg/kg, po administered as single dose measured at 24 hrs relative to control; format: functional
[10] = biological target: Intestinal-type alkaline phosphatase (Homo sapiens, UniProt P09923); test: Inhibition of IAP (unknown origin)
[11] = biological target: Alkaline phosphatase, placental type (Homo sapiens, UniProt P05187); test: Inhibition of PLAP (unknown origin)
[12] = Clearance in mouse plasma at 2 mg/kg, iv; format: ADME, organism-based
[13] = as §1; format: ADME, organism-based; conditions: in vivo

Alkaline phosphatase, placental type, sequence (P05187 whole entry): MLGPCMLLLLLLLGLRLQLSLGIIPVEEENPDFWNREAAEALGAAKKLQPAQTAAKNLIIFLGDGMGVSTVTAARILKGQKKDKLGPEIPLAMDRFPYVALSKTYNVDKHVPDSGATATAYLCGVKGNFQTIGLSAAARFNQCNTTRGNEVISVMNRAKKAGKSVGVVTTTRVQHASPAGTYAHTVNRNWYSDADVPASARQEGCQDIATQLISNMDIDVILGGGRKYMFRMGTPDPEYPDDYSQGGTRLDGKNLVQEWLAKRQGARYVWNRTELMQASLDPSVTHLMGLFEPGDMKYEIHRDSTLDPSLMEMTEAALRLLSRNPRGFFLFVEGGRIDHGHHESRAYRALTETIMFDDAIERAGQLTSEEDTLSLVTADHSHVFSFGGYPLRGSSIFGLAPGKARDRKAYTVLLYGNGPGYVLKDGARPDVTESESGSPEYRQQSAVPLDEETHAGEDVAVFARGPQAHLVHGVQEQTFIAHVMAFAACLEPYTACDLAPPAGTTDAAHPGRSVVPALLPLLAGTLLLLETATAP
Intestinal-type alkaline phosphatase, sequence (P09923 whole entry): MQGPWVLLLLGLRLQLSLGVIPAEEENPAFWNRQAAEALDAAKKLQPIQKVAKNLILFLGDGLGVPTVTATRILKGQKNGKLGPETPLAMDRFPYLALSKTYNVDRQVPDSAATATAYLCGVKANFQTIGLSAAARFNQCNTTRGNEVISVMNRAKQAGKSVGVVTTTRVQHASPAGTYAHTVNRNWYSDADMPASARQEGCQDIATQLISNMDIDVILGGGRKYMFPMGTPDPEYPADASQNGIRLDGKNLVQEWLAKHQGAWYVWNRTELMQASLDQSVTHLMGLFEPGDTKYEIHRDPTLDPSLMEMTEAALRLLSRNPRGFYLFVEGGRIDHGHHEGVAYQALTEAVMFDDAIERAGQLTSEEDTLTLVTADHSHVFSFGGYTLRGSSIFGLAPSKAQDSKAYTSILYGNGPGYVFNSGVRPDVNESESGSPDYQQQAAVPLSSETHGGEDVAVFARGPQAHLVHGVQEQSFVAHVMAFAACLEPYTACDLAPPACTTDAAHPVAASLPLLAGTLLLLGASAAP

| IC50 [1] [nM] | IC50 [2] [nM] | Vd [3] [L/kg] | Cmax [4] [µg/mL] | AUC (Mus musculus [5]) [µg·h/mL] | half-life [6] [h] | F (Mus musculus [7]) [%] | IC50 [10] [nM] | IC50 [11] [nM] | clearance [12] [mL/min/kg] | AUC [13] [µg·h/mL] | Structure (SMILES) | inhibition in vivo at 10 mg/kg (Mus musculus [8]) [%] | inhibition in vivo at 10 mg/kg (Mus musculus [9]) [%] |
| --- | --- | --- | --- | --- | --- | --- | --- | --- | --- | --- | --- | --- | --- |
| 876 | > 20000 | – | – | – | – | – | – | – | – | – | COc1ccc(-c2ccccc2)cc1S(=O)(=O)Nc1cccnc1 | – | – |
| – | 105 | 1.03 | 178 | 848 | 2.3 | 58 | > 80000 | > 80000 | – | – | COc1ccc(Cl)cc1S(=O)(=O)Nc1cncc(C(N)=O)c1 | > 75 | 50 |
| – | – | 0.31 | 133 | 603 | 2.2 | 70 | – | – | – | – | COc1ccc(Br)cc1S(=O)(=O)Nc1cncc(C(N)=O)c1 | – | – |
| – | – | 0.88 | 63 | – | 3.7 | > 100 | – | – | 16.8 | 141 | COc1ccc(F)cc1S(=O)(=O)Nc1cncc(C(N)=O)c1 | – | – |
